Literature values, collected in patent US8431151B2, “Antimicrobial nanostructured hydrogel web containing silver” (Syracuse University, priority 2009, dated 2013).

Columns and labels:
mouse bone marrow cells = conditions: 4 μg/mL silver (Ag^+)
[1] = test system: 16 bacterial species including Escherichia coli, Pseudomonas aeruginosa, and Staphylococcus aureus; conditions: 16 bacterial species tested

In the case of `[Ag+]` [silver (Ag^+)], the “detrimental effects to mouse bone marrow cells” value (mouse bone marrow cells) is given as “does not exhibit any obvious detrimental effects” and the “silver concentration at which bacterial species are inhibited” value [1] is given as 1.25 µg/mL.
